Data taken from patent US7884122B2, “Extended release formulation and method of treating adrenergic dysregulation” (Shionogi Pharma, Inc., priority 2007, dated 2011).
Converted amounts (≈) assume the structure as drawn.

Legend:
[1] = system: systolic and diastolic blood pressure; assay: animal or person; conditions: Homo sapiens, 600 h, Systolic BP vs AUCτ at Day 25, sigmoidal Emax model
Method: Mean baseline ABPM data for the three treatment groups were compared with mean data obtained on Day 26 (last day of treatment) and on Days 27 and 28. A more detailed PK/PD analysis was conducted by using the individual patient ABPM data to compare the blood pressure profile at Baseline and on Day 26 of treatment. The daytime (0- to 12-hour) intervals were used in the analysis, since pharmacokinetic data were collected on Day 25, over the daytime 12-hour dosing interval at steady state. In order to investigate the maintenance of effect at the tail end of the inter-dosing interval, differences between the SBP, DBP, and HR values at Baseline and the last two hours in the inter-dosing interval (Hours 11 and 12) on Day 26 were calculated for each patient. Paired t-tests were performed to test the significance of these differences between Baseline and the last two measuring times. The approach taken to quantify the effects of clonidine on blood pressure was to calculate the difference between the areas under the BP vs. time curves (AUCBP) at Baseline and on Day 26. These values were used to relate the pharmacodynamic effect to dose, as well as to conduct the PK/PD analyses.
Pharmacokinetic-pharmacodynamic modeling was conducted using the blood pressure response data and the Cmax, Cmin and AUCτ values at Day 25 of dosing. […]

[2] = traditional oral formulation of clonidine; cited from earlier work

For `Clc1cccc(Cl)c1N=C1NCCN1` [clonidine, 2,6-dichloro-N-2-imidazolidinylidene benzeneamine], the EC50 [1] is given as 4.7 ng/mL (≈ 0.0204 µM), the EC90 [1] is given as 6.69 ng/mL (≈ 0.0291 µM) and the biological half-life [2] is given as “about four to six hours”.
